Measured values: patent publication US20260183303A1, “PDK1 REGULATORY COMPOUND AND COMPOSITION CONTAINING THE SAME” (PROVIBIO CO., LTD., priority 2024, published 2026)

Columns and labels:
[1] = system: T cells isolated from mouse spleens; assay: T cell proliferation inhibition (CFSE flow cytometry, anti-CD3/anti-CD28 activation); assay type: cell-based, C57BL/6 mice; conditions: mouse spleen T cells, CD3/CD28 activated, cultured three days
Protocol: To verify the T cell proliferation inhibitory effect of the compounds according to the present invention, the following experiment was performed based on flow cytometry analysis using carboxyfluorescein diacetate succinimidyl ester (CFSE), a fluorescent dye that binds to intracellular molecules via covalent bonds.
Spleens were extracted from 7-week-old C57BL/6 mice, ground, and then separated into single cells using a strainer ([…], SPL). Red blood cells were removed using ACK (Ammonium-Chloride-Potassium) lysis buffer to isolate white blood cells.
Finally, using a MACS Magnetic Stand and LS column, T cells were isolated from the spleen.
The T cells isolated from the spleen were resuspended in 1 mL of free medium (RPMI-1640+200 U/mL penicillin+200 μg/mL streptomycin), and 0.3 μL of CFSE (10 mM) was added. The mixture was incubated at 37° C. for 5 minutes.
Free medium (10 mL) was added to stop the reaction, and the cells were centrifuged to obtain the cell pellet.
RPMI 1640 medium containing 10% FBS, 100 U/mL penicillin, 100 μg/mL streptomycin, and resuspended the cells. The cells were then seeded into a 96-well plate at a density of 2×10^5 cells per well and activated with CD3 and CD28 antibodies ([…]) to activate T cells.
The compound diluted in DMSO was added at concentrations of 10 nM, 100 nM, 1 μM, […], 30 μM, and 50 µM, with three wells per concentration, and cultured at 37° C. and 5% CO2 for three days. The cells were then analyzed using a FACS Canto instrument.
The proliferation inhibition rate (%) was calculated using the following formula: […]

[2] = system: Human B Lymphocyte cell line, SU-DHL-8; assay: Relative cell viability (CCK-8), SU-DHL-8; assay type: cell-based; conditions: 48 hours, untreated cells (DMSO) = 100%
Protocol: Human-derived B lymphoma cell line SU-DHL-8 (Cat. #CRL-2961) purchased from ATCC was cultured in RPMI-1640 medium containing […], 100 U/mL penicillin, and 100 μg/mL streptomycin.
The cell culture medium was then harvested, centrifuged at 1,300 rpm for 5 minutes, and the supernatant was removed. The cells were resuspended in the same medium and dispensed into a 96-well plate (Costar 96-well cell culture plate, Corning) at 90 μL per well, resulting in the conditions specified in Table 5.
Then, 10 μL of CCK-8 was added to each well, and the plates were incubated again at 37° C. in a 5% CO2 incubator for 4 hours.
In other words, when the survival rate of untreated cells (DMSO) is set at 100%, the relative cell survival rate in each group treated with the drug at different concentrations is indicated.

SMILES | Proliferation inhibition rate (%) ([1]; 10 nM) | Proliferation inhibition rate (%) ([1]; 100 nM) | Proliferation inhibition rate (%) ([1]; 1 μM) | Proliferation inhibition rate (%) ([1]; 10 μM) | Proliferation inhibition rate (%) ([1]; 30 μM) | Proliferation inhibition rate (%) ([1]; 50 μM) | Relative cell viability (%) ([2]; SU-DHL-8, 1 μM) | Relative cell viability (%) ([2]; SU-DHL-8, 10 μM) | Relative cell viability (%) ([2]; SU-DHL-8, 30 μM) | Relative cell viability (%) ([2]; SU-DHL-8, 50 μM) | Proliferation inhibition rate (%) ([1]; 10 nM, listed as K-PB-48, 0.01 µM)
CN(C)C1CCN(CCCCCCCCCCCCNC(=O)c2cccnc2N)C1 (stereo not drawn) [Compound 19, 2-Amino-N-(12-(3-(dimethylamino)pyrrolidin-1-yl)dodecyl) nicotinamide] | −14.40% | 100.00% | 100.00% | 100.00% | 100.00% | 100.00% | 8.51% | 7.51% | 5.98% | 5.08% | 
CC1CN(CCCCCCCCCCCCNC(=O)c2cccnc2N)CC(C)O1 (stereo not drawn) [Compound 21, 2-Amino-N-(12-(2,6-dimethylmorpholino)dodecyl) nicotinamide] |  | 100.00% | 100.00% | 100.00% | 100.00% | 100.00% |  |  | 3.70% |  | 
CC1CCN(CCCCCCCCCCCCNC(=O)c2cccnc2N)C1 (stereo not drawn) [Compound 24, 2-Amino-N-(12-(3-methylpyrrolidin-1-yl)dodecyl) nicotinamide] |  | 100.00% | 100.00% | 100.00% | 100.00% | 100.00% |  |  | 0.62% |  | 
Nc1ncccc1C(=O)NCCCCCCCCCCCCN1CCS(=O)(=O)CC1 [Compound 25, 2-Amino-N-(12-(1,1-dioxidothiomorpholino)dodecyl) nicotinamide] |  |  | 100.00% | 100.00% | 100.00% | 100.00% |  |  | 0.11% | 0.95% | 
Nc1ncccc1C(=O)NCCCCCCCCCCCCN1CCC(F)C1 (stereo not drawn) [Compound 26, 2-Amino-N-(12-(3-fluoropyrrolidin-1-yl)dodecyl) nicotinamide] |  | 100.00% | 100.00% | 100.00% | 100.00% | 100.00% | 1.70% |  | 0.05% |  | 
Nc1ncccc1C(=O)NCCCCCCCCCCCCN1CCN(Cc2ccc(F)cc2)CC1 [Compound 27, 2-Amino-N-(12-(4-(4-fluorobenzyl)piperazin-1-yl)dodecyl) nicotinamide] | 2.27% | 83.33% | 100.00% | 100.00% | 100.00% | 100.00% | 6.24% | 4.97% | 2.03% | 0.56% | 
COc1ccc(CN2CCN(CCCCCCCCCCCCNC(=O)c3cccnc3N)CC2)cc1 [Compound 28, 2-Amino-N-(12-(4-(4-methoxybenzyl)piperazin-1-yl)dodecyl) nicotinamide] | −0.27% | 100.00% | 100.00% | 100.00% | 100.00% | 100.00% | 5.46% | 2.82% | 0.33% |  | 
CN(C)CCN1CCN(CCCCCCCCCCCCNC(=O)c2cccnc2N)CC1 [Compound 33, 2-Amino-N-(12-(4-(2-(dimethylamino)ethyl)piperazin-1-yl)dodecyl) nicotinamide] | −36.05% | 100.00% | 100.00% | 100.00% | 100.00% | 100.00% |  | 4.32% | 3.35% | 2.66% | 
CC1CNCCN1CCCCCCCCCCCCNC(=O)c1cccnc1N (stereo not drawn) [Compound 35, 2-Amino-N-(12-(2-methylpiperazin-1-yl)dodecyl) nicotinamide] |  | 100.00% | 100.00% | 100.00% | 100.00% | 100.00% |  | 0.64% | 0.42% |  | 
Nc1ncccc1C(=O)NCCCCCCCCCCCCN1CCC(Oc2ccncc2)CC1 [Compound 38, 2-Amino-N-(12-(4-(pyridin-4-yloxy)piperidin-1-yl)dodecyl) nicotinamide] |  | 100.00% | 100.00% | 100.00% | 100.00% | 100.00% |  | 3.30% |  |  | 
CN1CCN(CCCCCCCCCCCCNC(=O)c2cccnc2F)CC1 [Compound 121, 2-fluoro-N-(12-(4-methylpiperazin-1-yl)dodecyl) nicotinamide] | 0.00% | 0.00% | 0.00% | 30.00% | 100.00% | 100.00% |  |  |  |  | 
Nc1ncccc1C(=O)NCCCCCCCCCCCCN1CC(F)(F)C1 [Compound 122, 2-Amino-N-(12-(3,3-difluoroazetidin-1-yl)dodecyl) nicotinamide] | 0.00% | 0.00% | 80.00% | 100.00% | 100.00% | 100.00% |  |  |  |  | 
COC1CCN(CCCCCCCCCCCCNC(=O)c2cccnc2N)C1 (stereo not drawn) [Compound 126, 2-amino-N-(12-(3-methoxypyrrolidin-1-yl)dodecyl) nicotinamide] |  | 100.00% | 100.00% | 100.00% | 100.00% | 100.00% |  |  |  |  | 0.00%
Nc1ncccc1C(=O)NCCCCCCCCCCCCN1CCOC1=O [Compound 127, 2-amino-N-(12-(2-oxooxazolidin-3-yl)dodecyl) nicotinamide] |  |  |  | 100.00% | 100.00% | 100.00% |  |  |  |  | 
Nc1ncccc1C(=O)NCCCCCCCCCCCCNC1CCOC1 (stereo not drawn) [Compound 128, 2-amino-N-(12-((tetrahydrofuran-3-yl)amino)dodecyl) nicotinamide] |  | 100.00% | 100.00% | 100.00% | 100.00% | 100.00% |  |  |  |  | 
Nc1ncccc1C(=O)NCCCCCCCCCCCCN1CC=CC1 [Compound 129, 2-amino-N-(12-(2,5-dihydro-1H-pyrrol-1-yl)dodecyl) nicotinamide] | 0.00% | 90.00% | 100.00% | 100.00% | 100.00% | 100.00% |  |  |  |  | 
